# Reference: ChEMBL document CHEMBL3286108, “Novel arylsulfonamide derivatives with 5-HT₆/5-HT₇ receptor antagonism targeting behavioral and psychological symptoms of dementia” (J Med Chem, 2014)
# Tests used:
# [1] = target: 5-hydroxytryptamine receptor 2A (Homo sapiens, UniProt P28223); assay: biochemical; format: cell-based, CHO-K1
# D(2) dopamine receptor = D(2) dopamine receptor (Homo sapiens, UniProt P14416); assay: biochemical
# [2] = target: 5-hydroxytryptamine receptor 7 (Homo sapiens, UniProt P34969); assay: biochemical; format: cell-based, CHO-K1
# [3] = target: hERG (KCNH2) potassium channel (Homo sapiens, UniProt Q12809); assay: in vitro; conditions: CHO cells expressing human cloned ERG
# [4] = target: 5-hydroxytryptamine receptor 6 (Homo sapiens, UniProt P50406); assay: biochemical
# [5] = target: T1, Muscarinic acetylcholine receptor M1 (Homo sapiens) (UniProt P11229); assay: Displacement of [3H]pirenzepine from human recombinant M1 receptor expressed in CHO cells at 1 uM; format: cell-based
# T1 sequence (whole entry): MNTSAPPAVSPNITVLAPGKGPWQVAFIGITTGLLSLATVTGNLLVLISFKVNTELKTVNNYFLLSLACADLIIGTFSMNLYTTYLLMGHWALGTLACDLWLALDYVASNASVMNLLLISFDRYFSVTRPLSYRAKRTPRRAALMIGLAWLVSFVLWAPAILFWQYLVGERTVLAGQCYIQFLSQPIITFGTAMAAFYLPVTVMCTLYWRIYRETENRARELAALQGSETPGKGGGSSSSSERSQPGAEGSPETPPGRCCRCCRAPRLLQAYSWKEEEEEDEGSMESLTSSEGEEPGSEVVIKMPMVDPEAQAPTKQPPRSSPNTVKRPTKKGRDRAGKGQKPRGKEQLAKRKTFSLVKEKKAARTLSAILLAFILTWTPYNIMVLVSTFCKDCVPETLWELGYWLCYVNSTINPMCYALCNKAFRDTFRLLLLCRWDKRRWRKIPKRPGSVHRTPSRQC
# Chain of hERG (KCNH2) potassium channel (Q12809 whole entry): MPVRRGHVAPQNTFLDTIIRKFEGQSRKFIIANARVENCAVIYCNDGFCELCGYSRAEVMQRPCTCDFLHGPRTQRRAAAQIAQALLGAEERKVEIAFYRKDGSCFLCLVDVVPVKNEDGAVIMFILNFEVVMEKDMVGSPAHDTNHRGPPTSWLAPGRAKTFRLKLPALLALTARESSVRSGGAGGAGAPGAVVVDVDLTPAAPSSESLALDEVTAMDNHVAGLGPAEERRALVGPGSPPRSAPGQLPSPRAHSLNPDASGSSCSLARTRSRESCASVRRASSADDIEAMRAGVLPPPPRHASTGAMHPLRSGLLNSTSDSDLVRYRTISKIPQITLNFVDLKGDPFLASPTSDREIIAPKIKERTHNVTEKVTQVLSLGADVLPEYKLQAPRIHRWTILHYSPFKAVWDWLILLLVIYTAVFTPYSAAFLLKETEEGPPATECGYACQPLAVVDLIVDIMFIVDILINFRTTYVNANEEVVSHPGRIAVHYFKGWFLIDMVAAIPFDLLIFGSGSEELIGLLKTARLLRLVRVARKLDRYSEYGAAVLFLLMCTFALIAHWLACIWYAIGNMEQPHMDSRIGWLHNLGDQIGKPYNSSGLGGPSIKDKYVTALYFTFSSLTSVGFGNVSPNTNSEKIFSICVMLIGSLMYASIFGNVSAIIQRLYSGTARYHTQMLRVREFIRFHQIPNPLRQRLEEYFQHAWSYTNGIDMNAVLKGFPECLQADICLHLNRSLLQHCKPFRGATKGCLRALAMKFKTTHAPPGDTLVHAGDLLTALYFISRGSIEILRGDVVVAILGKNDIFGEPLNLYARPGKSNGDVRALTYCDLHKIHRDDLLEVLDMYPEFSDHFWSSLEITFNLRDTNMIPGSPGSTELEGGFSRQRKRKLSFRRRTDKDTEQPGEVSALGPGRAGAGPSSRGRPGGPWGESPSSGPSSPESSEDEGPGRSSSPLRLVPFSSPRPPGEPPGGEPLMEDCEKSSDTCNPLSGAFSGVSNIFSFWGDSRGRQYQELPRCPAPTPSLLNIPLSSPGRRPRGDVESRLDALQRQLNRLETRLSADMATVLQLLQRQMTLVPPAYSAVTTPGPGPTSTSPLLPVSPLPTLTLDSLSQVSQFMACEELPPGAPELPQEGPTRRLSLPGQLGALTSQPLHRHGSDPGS
# Chain of 5-hydroxytryptamine receptor 7 (P34969 whole entry): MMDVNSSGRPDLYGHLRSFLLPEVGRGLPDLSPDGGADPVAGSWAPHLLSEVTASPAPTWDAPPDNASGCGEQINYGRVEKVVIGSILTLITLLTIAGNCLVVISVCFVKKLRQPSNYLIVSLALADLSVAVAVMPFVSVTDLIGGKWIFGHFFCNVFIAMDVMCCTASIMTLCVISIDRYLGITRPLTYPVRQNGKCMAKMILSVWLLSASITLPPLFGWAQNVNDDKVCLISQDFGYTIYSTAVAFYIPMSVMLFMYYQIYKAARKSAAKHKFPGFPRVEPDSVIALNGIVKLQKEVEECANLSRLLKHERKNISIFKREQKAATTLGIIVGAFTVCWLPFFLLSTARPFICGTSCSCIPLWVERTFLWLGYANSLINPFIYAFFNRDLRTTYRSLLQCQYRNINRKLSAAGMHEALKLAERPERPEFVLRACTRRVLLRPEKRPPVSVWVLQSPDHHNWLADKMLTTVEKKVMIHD
# Chain of 5-hydroxytryptamine receptor 2A (P28223 whole entry): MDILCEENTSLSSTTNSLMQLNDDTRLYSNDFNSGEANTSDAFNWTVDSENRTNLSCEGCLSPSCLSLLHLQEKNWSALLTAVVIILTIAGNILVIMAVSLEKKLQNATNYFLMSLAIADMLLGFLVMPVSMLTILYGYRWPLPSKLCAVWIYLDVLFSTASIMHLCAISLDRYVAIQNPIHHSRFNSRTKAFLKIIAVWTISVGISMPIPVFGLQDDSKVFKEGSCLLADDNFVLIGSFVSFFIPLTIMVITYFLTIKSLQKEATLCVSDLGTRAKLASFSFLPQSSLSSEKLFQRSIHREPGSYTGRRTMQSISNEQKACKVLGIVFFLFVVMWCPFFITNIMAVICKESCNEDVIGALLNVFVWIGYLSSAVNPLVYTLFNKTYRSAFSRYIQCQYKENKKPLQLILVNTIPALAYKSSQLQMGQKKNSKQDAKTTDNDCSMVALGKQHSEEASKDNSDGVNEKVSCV
# Chain of D(2) dopamine receptor (P14416 whole entry): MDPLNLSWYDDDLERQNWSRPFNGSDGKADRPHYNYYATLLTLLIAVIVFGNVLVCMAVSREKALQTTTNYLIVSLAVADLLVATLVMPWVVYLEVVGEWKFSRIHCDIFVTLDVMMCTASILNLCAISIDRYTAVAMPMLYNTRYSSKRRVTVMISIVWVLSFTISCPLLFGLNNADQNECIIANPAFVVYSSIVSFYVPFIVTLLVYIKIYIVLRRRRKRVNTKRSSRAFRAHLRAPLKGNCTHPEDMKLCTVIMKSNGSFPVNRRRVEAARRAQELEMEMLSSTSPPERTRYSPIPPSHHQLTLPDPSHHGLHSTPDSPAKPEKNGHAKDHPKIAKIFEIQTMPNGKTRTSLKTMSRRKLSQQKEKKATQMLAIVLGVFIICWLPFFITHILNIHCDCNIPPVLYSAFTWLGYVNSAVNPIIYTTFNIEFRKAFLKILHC
# Chain of 5-hydroxytryptamine receptor 6 (P50406 whole entry): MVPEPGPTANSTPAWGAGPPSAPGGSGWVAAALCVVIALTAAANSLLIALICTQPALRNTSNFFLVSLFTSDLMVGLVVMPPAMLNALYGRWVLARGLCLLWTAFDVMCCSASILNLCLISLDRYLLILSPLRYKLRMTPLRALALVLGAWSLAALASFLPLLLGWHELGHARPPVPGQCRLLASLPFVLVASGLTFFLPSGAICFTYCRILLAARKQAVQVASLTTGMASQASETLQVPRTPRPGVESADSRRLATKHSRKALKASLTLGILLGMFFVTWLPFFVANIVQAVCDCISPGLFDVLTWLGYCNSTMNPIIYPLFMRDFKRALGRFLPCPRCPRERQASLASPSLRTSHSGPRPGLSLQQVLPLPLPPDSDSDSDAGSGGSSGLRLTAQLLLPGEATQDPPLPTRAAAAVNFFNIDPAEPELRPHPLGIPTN
SMILES,Ki [1] [nM],Ki (D(2) dopamine receptor) [nM],Ki [2] [nM],Ki [4] [nM],inhibition [5] [%],inhibition at 1 µM [3] [%]
O=S(=O)(NCCCCN1CCN(c2noc3ccccc23)CC1)c1cc2ccc(Cl)cc2s1,11,54,5.1,46,-1,15
O=S(=O)(NCCCCN1CCN(c2nsc3ccccc23)CC1)c1cnc2ccccn12,8.1,46,4.1,140,6,17
O=S(=O)(NCCCCN1CCC(c2noc3cc(F)ccc23)CC1)c1cnc2ccccn12,9.5,> 1000,14,100,37,47
Cc1cccc(S(=O)(=O)NCCCCN2CCN(c3nsc4ccccc34)CC2)c1,0.4,8.7,1.6,100,-4,17
O=S(=O)(NCCCN1CCN(c2noc3ccccc23)CC1)c1ccc(Cl)c(Cl)c1,290,> 10000,34,1100,0,27
O=S(=O)(NCCCCN1CCN(c2noc3ccccc23)CC1)c1ccc(F)c(Cl)c1,17,77,0.1,27,6,45
O=S(=O)(NCCCN1CCC(c2noc3cc(F)ccc23)CC1)c1cccc2scnc12,9.1,> 1000,1.3,23,1,51
O=S(=O)(NCCCN1CCC(c2noc3cc(F)ccc23)CC1)c1csc2ccccc12,1.6,36,0.9,13,-2,25
O=S(=O)(NCCCN1CCN(c2noc3ccccc23)CC1)c1ccc(F)c(Cl)c1,98,> 10000,9.9,330,2,33
O=S(=O)(NCCCN1CCC(c2noc3cc(F)ccc23)CC1)c1cc2ccc(Cl)cc2s1,2.6,27,34,44,-8,20
O=S(=O)(NCCCCN1CCN(c2nsc3ccccc23)CC1)c1ccc(Cl)c(Cl)c1,12,27,6.9,71,7,45
Cc1cccc(S(=O)(=O)NCCCCN2CCC(c3noc4cc(F)ccc34)CC2)c1,2.1,17,1.5,140,11,57
O=S(=O)(NCCCN1CCN(c2noc3ccccc23)CC1)c1cccc2scnc12,3300,> 10000,41,> 10000,-2,17
O=S(=O)(NCCCN1CCN(c2noc3ccccc23)CC1)c1ccc(OC(F)(F)F)cc1,950,63,380,2200,3,10
Cc1c(S(=O)(=O)NCCCN2CCN(c3nsc4ccccc34)CC2)sc2ccc(F)cc12,14,8.3,25,120,-8,3
O=S(=O)(NCCCCN1CCC(c2noc3cc(F)ccc23)CC1)c1csc2ccccc12,5.7,22,4.3,13,5,46
O=S(=O)(NCCCN1CCN(c2nsc3ccccc23)CC1)c1cccc2scnc12,8.4,27,2,27,0,16
Cc1c(S(=O)(=O)NCCCN2CCC(c3noc4cc(F)ccc34)CC2)sc2ccc(F)cc12,2.3,8,10,25,2,43
O=S(=O)(NCCCCN1CCN(c2nsc3ccccc23)CC1)c1cc2ccc(Cl)cc2s1,6.5,45,9,45,2,5

# Continued, in another order:
Ki [1] [nM],Ki (D(2) dopamine receptor) [nM],Ki [2] [nM],Ki [4] [nM],inhibition [5] [%],SMILES,inhibition at 1 µM [3] [%]
3.1,23,18,26,-7,O=S(=O)(NCCCN1CCC(c2noc3cc(F)ccc23)CC1)c1ccc2cc(Cl)ccc2c1,28
6.5,44,4.6,54,10,Cc1c(S(=O)(=O)NCCCCN2CCN(c3nsc4ccccc34)CC2)sc2ccc(F)cc12,5
6,15,9.9,33,0,O=S(=O)(NCCCCN1CCN(c2nsc3ccccc23)CC1)c1cc2ccccc2s1,11
15,39,5.3,53,-10,O=S(=O)(NCCCCN1CCN(c2nsc3ccccc23)CC1)c1ccc(F)c(Cl)c1,29
63,30,900,560,6,O=S(=O)(NCCCN1CCN(c2noc3ccccc23)CC1)c1cc2ccc(Cl)cc2s1,7
13,6,38,100,-7,O=S(=O)(NCCCN1CCN(c2nsc3ccccc23)CC1)c1ccc2cc(Cl)ccc2c1,7
12,26,6.3,84,2,O=S(=O)(NCCCN1CCN(c2nsc3ccccc23)CC1)c1cnc2ccccn12,6
190,1300,180,1100,2,O=S(=O)(NCCCCN1CCN(c2noc3ccccc23)CC1)c1cc2ccccc2s1,14
4.9,15,5.1,26,27,O=S(=O)(NCCCCN1CCC(c2noc3cc(F)ccc23)CC1)c1ccc(Cl)c(Cl)c1,82
13,100,5.9,95,0,O=S(=O)(NCCCCN1CCN(c2noc3ccccc23)CC1)c1cnc2ccccn12,13
> 10000,> 10000,2500,2300,3,O=S(=O)(NCCCN1CCN(c2noc3ccccc23)CC1)c1ccc2cc(Cl)ccc2c1,14
6.5,15,3.2,100,-4,O=S(=O)(NCCCN1CCC(c2noc3cc(F)ccc23)CC1)c1cnc2ccccn12,28
410,15,150,35,14,O=S(=O)(NCCCN1CCN(c2noc3ccccc23)CC1)c1cc2ccccc2s1,21
110,7200,120,1600,-5,O=S(=O)(NCCCN1CCN(c2noc3ccccc23)CC1)c1ccc2ccccc2c1,29
0.7,9.1,1.3,250,-8,O=S(=O)(NCCN1CCC(c2noc3cc(F)ccc23)CC1)c1cccc2ccccc12,0
2700,5.3,67,5200,3,O=S(=O)(NCCCCN1CCN(c2noc3ccccc23)CC1)c1cccs1,39
